# Results from US6468983B2, “RNase L activators and antisense oligonucleotides effective to treat telomerase-expressing malignancies” (The Cleveland Clinic Foundation, priority 1997, dated 2002).
# How the values were obtained:
# U373-MG cells = assay: Combination with cisplatin in vitro, MTT assay; assay type: cell-based, human
# Procedure: (§1) FIG. 17. Effect of combining 2-5A-anti-hTR with cisplatin on malignant glioma U373-MG cells in vitro and in vivo. FIG. 17A Tumor cells were treated with 2-5A-anti-hTR (0.5 μM, every 24 hr) mixed with Lipofectamine (1.0 μl/25 μl DMEM) or cisplatin for three days, and their viability was determined by MTT assay. Values represent the means±S.D. FIG. 17B Tumors from U373-MG cells (1.0×10^6 cells in 0.05 ml serum free DMEM and 0.05 ml matrigel) were established subcutaneously in nude mice. After four or five weeks when the tumors were approximately 60-100 mm^3, spA4-anti-hTR (5 nmol/20 μl sterile distilled water) were administrated directly into the tumors daily for 7 days. Cisplatin (1.0 or 5.0 mg/kg/mice) was administered intraperitoneally on Days 1, 3 and 5. Five Mice were used in each treatment group. Tumor volume was then determined using calipers, and the mean sizes ±S.D. were calculated.
# To determine if the anti-malignant glioma cell activity of chemotherapeutic agent, cisplatin, could be enhance with SpA4-anti-hTR, a combination therapy protocol was devised (FIG. 17). The point at which 50% cell death was achieved was using 1 microgram per ml of cisplatin plus 0.5 micromolar of SpA4-anti-hTR; whereas in the absence of SpA4-anti-hTR, >10 micrograms per ml of cisplatin were required to achieve 50% cell death (FIG. 17). […] Furthermore, we determined the effect of combining 2-5A-anti-hTR with cisplatin on U373-MG cells in vitro and in vivo. […] The IC50 of cisplatin was reduced from 10.0 to 1.0 μg/ml by combination of spA4-anti-hTR.
# U373-MG tumors [1] = assay: Combination with cisplatin on subcutaneous tumors in nude mice; assay type: in vivo; conditions: cisplatin 1 or 5 mg/kg i.p. Days 1, 3, 5 combined with spA4-anti-hTR 5 nmol intratumoral daily 7 days, versus cisplatin alone
# Procedure: as §1
# To determine if the anti-malignant glioma cell activity of chemotherapeutic agent, cisplatin, could be enhance with SpA4-anti-hTR, a combination therapy protocol was devised (FIG. 17). […] Furthermore, we determined the effect of combining 2-5A-anti-hTR with cisplatin on U373-MG cells in vitro and in vivo. […]
# telomerase RNA (hTR) = assay: RT-PCR for telomerase RNA in oligonucleotide-treated U251-MG cells; assay type: cell-based, human; conditions: oligonucleotide 5 μM, 5 hours treatment
# Procedure: Chimeric oligonucleotides were synthesised on solid supports and purified as described previously (Torrence et al 1993; Lesiak et al 1993; Xiao et al 1994, 1996; Cirino et al 1997). Tumor cells were seeded at 3×10^5 cells/well (3 ml) in 6-well plates and incubated overnight at 37° C. Cells were then treated with oligonucleotides (5 μM). Five hours later total RNA was isolated by using Trizol solution (GIBCO BRL, Grand Island, N.Y.). Expression of telomerase RNA was determined with RT-PCR. The RNA was reverse transcribed into complementary DNA (cDNA) with random oligos used as a primer, and then the cDNA was diluted three times with buffer 10×PCR buffer (Perkin-Elmer, Norwalk, Conn.) at a final concentration of 1:4. The DNA at each dilution was amplified using primers to antisense and sense sequences on opposite sides of the human telomerase RNA sequence, 5′-[…]-3′ (SEQ ID NO:4) and 5′[…]-3′ […], respectively, or to the GAPDH coding sequence, 5′-[…]-3′ […] and 5′[…]-3′ (SEQ ID NO:7), respectively, producing DNA fragments of 400 bp for telomerase cDNA and 508 bp for the GAPDH cDNA, respectively. The PCR went for 30 cycles (94° C., 1 min; 55° C., 1 min; 72° C., 2 min) for telomerase and 30 cycles (94° C., 1 min; 60° C., 1 min; 74° C., 3 min) for GAPDH. The PCR products were analyzed by 1.2% agarose gel electrophoresis and ethidium bromide staining.
# Aliquots of U251-MG cells were treated with the “active” oligonucleotide and the two controls for 5 hours. RNA was then prepared from these cells and subjected to RT-PCR to detect telomerase RNA. […] In contrast, telomerase RNA (hTR) was present in cells treated with the control oligonucleotides; spA2-anti-hTR and spA4-anti-(M6)hTR. Thus, hTR could be selectively destroyed in U251-MG cells. Since the RT-PCR assay is not quantitative, it was not possible to assess whether treatment with the spA2-anti-hTR , which has the fully complementary target sequence, had any antisense effect by itself (see below). […]
# U373 cells = assay: Viable cell count (trypan blue), daily oligonucleotide plus lipofectamine; assay type: cell-based, human; conditions: U373, 0.5 micromolar daily plus lipofectamine; for cell viability / viable cell numbers reduced by: 7 days
# Procedure: (§2) Cells (10,000/well) were seeded on 96 well tissue culture dishes, and treated every 24 hours. A 10× concentrated mixture of oligonucleotides plus lipofectamine in water was prepared containing 5 micromolar oligonucleotide and 80 microgram per ml lipofectamine™ (Gibco/BRL) and incubated for 10 min at room temperature. Media was removed from the cells, 10 microliters of the oligonucleotide/lipofectamine mixture was added directly to the cultured cells followed by 90 microliters of media plus serum. The media was changed with oligonucleotide/lipofectamine treatments every 24 h. Cells were passaged when the control cells reached confluency, and viable cells were counted after staining with Trypan Blue (GibcoBRL). The numbers of cells treated only with lipofectamine were used as the control to calculate percentages of cell survival or viability.
# U251-MG tumors [2] = assay: Subcutaneous xenografts in nude mice, intratumoral oligonucleotide; assay type: in vivo, Balb/c nude mice
# Procedure: (§3) U251-MG and U373 MG tumor cells (1.0×10^6 cells in 0.1 ml serum free DMEM and 0.1 ml Matrigel) were injected subcutaneously into the right flank of 8-12 week-old female Balb/c nude mice (5 mice for each treatment group). Tumor growth was monitored using calipers every 2- or 3-days. Tumor volume (V) was calculated as (L×W^2)/2, where L=length (mm) and W=width (mm). Oligonucleotide treatment was initiated when the tumors reached an average tumor volume of 60-100 mm^3 (about four to five weeks after injection). Oligonucleotides (5 nmol/20 microliter sterile distilled water) were administered by injecting them directly into the tumor every 24 hr for 7-14 days. Some experiments included lipofectamine at 1 microliter per 20 microliters final volume of oligonucleotide solution. Mice were sacrificed by cervical dislocation the day after the final injection and the tumors were removed, frozen rapidly and 12 μm sections were prepared for histological studies. During all of these experiments, which were approved by the CCF Research Programs Committee, the animals were housed and handled in accordance with the National Institutes of Health guidelines.
# U251-MG cells = assay: Cell viability assay, trypan blue dye exclusion, oligonucleotide in water every 12 hr; assay type: cell-based, human; conditions: 5 micromolar every 12 hr; for cell death / effect on viability (in words): 14 days
# Procedure: The cytotoxic effect of 2-5A activator antisense complexes on tumor cells was determined using the trypan blue dye exclusion assay. Tumor cells were seeded at 10^4 cells/well (0.1 ml) in 96-well flat-bottomed plates and incubated overnight at 37° C. Then, oligonucleotides (5 micromolar) in water were added into cells every 12 hr. On successive days the cells were harvested and 25% of the total was examined microscopically to determine the percentage of viable cells, another 25% was replated to continue treatment and the remaining 50% were used for the TRAP assay.
# Knowing that hTR could be inactivated by the 2-5A antisense treatment, U251-MG cells were treated every 12 hours over a 14 day period with the same three oligonucleotides. 79% of the cells treated with spA4-anti-hTR were killed over the 14 day period with a significant (50%) reduction in cell viability after only 5 days. […] These experiments have since been repeated on a number of occasions with U251-MG cells to test new batches of oligonucleotides, always with the same results. […] Thus, after 14 days from the initial treatment with spA4-anti-hTR, the viability of U251-MG cells, as shown by Trypan-blue exclusion assays, was suppressed in all cases.
# [3] = tested on: renal cell carcinoma cell line, RCC; assay: Viable cell count, daily oligonucleotide plus lipofectamine; assay type: cell-based, human; conditions: 0.5 micromolar daily plus lipofectamine, 3 days
# Procedure: as §2
# Similarly, the viability of the breast cancer cell line, MDA468, was reduced by 64% by SpA4-anti-hTR, while the control oligonucleotides reduced cell viability by <20% (FIG. 6). Viability of the human melanoma cell line, A375, was reduced by 43% in three days by SpA4-anti-hTR, while the control oligonucleotides had no effect (FIG. 7). […] Viability of a third human melanoma cell line, SK-MEL-5, was reduced by 43% by SpA4-anti-hTR, with minimal effects by the control oligonucleotides (FIG. 7). Two prostate tumor cells lines, PC3 and DU145, were suppressed by SpA4-anti-hTR treatments by 45% and 60%, respectively (FIGS. 6 and 10). […] The viability of the malignant glioma cell line, U373, was reduced by about 60% in 3 days, with intermediate effects by the control oligonucleotides (FIG. 6). Therefore, the proliferation and survival of every tumor cell type tested was inhibited by SpA4-anti-hTR. […] In contrast, there was no apoptosis detected in the control cells treated with lipofectamine without oligonucleotide (FIG. 12 upper panel).
# U373-MG tumors [4] = assay: Subcutaneous xenografts in nude mice, intratumoral oligonucleotide; assay type: in vivo, Balb/c nude mice; conditions: 5 nmol intratumoral daily for 7 days
# Procedure: as §3
# U251-MG tumors [5] = assay: In situ end-labeling (TUNEL) of DNA in subcutaneous xenografts; assay type: in vivo, nude mice; conditions: 5 nmol every day for 7 days
# Description: FIG. 14. In situ end-labeling of DNA in subcutaneous xenografts of nude mice. After treatment with oligonucleotides (5 nmol, every day) for 7 days, the mice were sacrificed and the subcutaneous mass was removed, frozen, and sectioned on a cryostat. The tumor specimens from U251-MG cells were counterstained by hematoxylin and eosin following the TUNEL technique. Arrows show representatives of tumor cells positive for DNA fragmentation (×400). (above) spA4-anti-(M6)hTR, 7 Day; (below) spA4-anti-hTR, 7 Day.
# To further determine whether treatment with oligonucleotides induced apoptosis, tumor cells and tissues were stained by the terminal deoxynucleotidyl transferase (TdT)-mediated DUTP nick end labeling (TUNEL) technique using Apo-Tag kit (peroxidase conjugated) (Oncor Inc., Gaithersburg, Md.). The staining of apoptotic cells was done on U373MG cells. Oligonucleotides with lipofectamine was added to the cells every day. The final concentrations were 0.5 micromolar and 8 microgram/ml for oligo and lipofectamine, respectively. […]
# U251-MG and U373 MG tumor cells (1.0×10^6 cells in 0.1 ml serum free DMEM and 0.1 ml Matrigel) were injected subcutaneously into the right flank of 8-12 week-old female Balb/c nude mice (5 mice for each treatment group). Tumor growth was monitored using calipers every 2- or 3-days. Tumor volume (V) was calculated as (L×W^2)/2, where L=length (mm) and W=width (mm). […]
Compound,telomerase RNA (hTR) detected by RT-PCR (telomerase RNA (hTR)),cell viability / viable cell numbers reduced by (U373 cells),tumor response (in words) (U251-MG tumors [2]; 14 days treatment),cell death / effect on viability (in words) (U251-MG cells),effect on growth/viability (in words) [3],further results
N.N.[Cl][Pt][Cl] [cisplatin],–,–,–,–,–,"IC50 of cisplatin (U373-MG cells; U373-MG, in combination with spA4-anti-hTR 0.5 μM every 24 hr plus Lipofectamine, three days, MTT): 1.0 µg/mL; cisplatin required to achieve 50% cell death (U373-MG cells; in the absence of SpA4-anti-hTR): > 10 micrograms per ml; cisplatin at which 50% cell death was achieved (U373-MG cells; plus 0.5 micromolar of SpA4-anti-hTR): 1 microgram per ml; cytotoxic effect of cisplatin on subcutaneous tumors (in words) (U373-MG tumors [1]): significantly enhanced"
"Sp5′A2′p5′A2p-[(Bu)p]2-5′GCG CGG GGA GCA AAA GCA C3′-3′T5′ (antisense GCGCGGGGAGCAAAAGCAC; 5' 2-5A dimer via butanediol linkers, 3'-3' T cap, chemistry not fully specified) [spA2-anti-hTR, control with only two 2′,5′-linked adenylyl residues, defective 2-5A]",present,42%,lack of response,mild antisense effect,no reduction in viability,cells remained viable (U251-MG cells; over the 14 day treatment period): 80%
"Sp5′A2′p(5′A2p)3-[(Bu)p]25′ GCC CGC GGT GCT AAT GCT C3′-3′T5′ (antisense GCCCGCGGTGCTAATGCTC; 5' tetrameric 2-5A via butanediol linkers, 3'-3' T cap, chemistry not fully specified) [spA4-anti-(M6)hTR, control with functional tetrameric 2-5A and six mismatched nucleotides in the antisense cassette]",present,43%,lack of response,"little, if any, cell death",no reduction in viability,"tumor growth (in words) (U373-MG tumors [4]): continued to increase in size; tumor growth (in words) (U251-MG tumors [2]; 5 nmol intratumoral daily for 7 days): continued to increase in size; average net weight of the tumors after treatment (U251-MG tumors [2]; 14 days treatment): 92.0 ± 14.7 mg; increase in tumor size during the treatment period (U251-MG tumors [2]; intratumoral daily for 14 days, relative to starting size): 87%; apoptotic cells observed in tumors (TUNEL) (U251-MG tumors [5]): a few apoptotic cells"
Sp5′A(2′p5′A)3-Bu2-5′GCC CGG GGT GCA AAT GCA C3′-3′T5′ [spA4-anti-(M3)hTR],–,76%,–,–,–,–
"Sp5′A(2′p5′A)11-Bu2-5′GCG CGG GGA GCA AAA GCA C3′-3′T5′ (antisense GCGCGGGGAGCAAAAGCAC; 5' 2-5A (A12) via butanediol linkers, 3'-3' T cap, chemistry not fully specified) [spA12-anti-hTR, compound containing twelve 2′,5′-linked adenylyl residues]",–,–,–,–,–,anti-cellular activity compared with spA4-anti-hTR (in words) (U373 cells; after 7 days): considerably more anti-cellular activity
